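Growth conditions: 96-well plates. Treatment: test compound, 48 hours, 5 concentrations. Analysis: linear interpolation between bracketing concentrations; unreached endpoints set to highest concentration. GI50 is the concentration that inhibits growth by half.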 The source made the active and inactive calls. Cut-off read from the data, not from the text of the source: active = GI50 up to about 1.1 µM and inactive = higher.
Assays:
Experiment in all cases: NCI-60 cell line screen, 48 h
786-0 = system: 786-0
A498 = system: A498
A549 = system: A549
ACHN = system: ACHN
CAKI-1 = system: CAKI-1
CCRF-CEM = system: CCRF-CEM
COLO 205 = system: COLO 205
DLD-1 = system: DLD-1
DMS-114 = system: DMS-114
DMS-273 = system: DMS-273
EKVX = system: EKVX
HCC 2998 = system: HCC 2998
HCT-116 = system: HCT-116
HCT-15 = system: HCT-15
HL-60 = system: HL-60
HOP-62 = system: HOP-62
HOP-92 = system: HOP-92
HT-29 = system: HT-29
IGROV-1 = system: IGROV-1
K562 = system: K562
KM-20L2 = system: KM-20L2
KM12 = system: KM12
LOX IMVI = system: LOX IMVI
LXFL 529 = system: LXFL 529
M14 = system: M14
M19-MEL = system: M19-MEL
MOLT-4 = system: MOLT-4
Malme-3M = system: Malme-3M
NCI-H226 = system: NCI-H226
NCI-H23 = system: NCI-H23
NCI-H460 = system: NCI-H460
NCI-H522 = system: NCI-H522
OVCAR-3 = system: OVCAR-3
OVCAR-4 = system: OVCAR-4
OVCAR-5 = system: OVCAR-5
OVCAR-8 = system: OVCAR-8
RPMI-8226 = system: RPMI-8226
RXF 393 = system: RXF 393
SF-268 = system: SF-268
SF-295 = system: SF-295
SF-539 = system: SF-539
SK-MEL-28 = system: SK-MEL-28
SK-MEL-2 = system: SK-MEL-2
SK-MEL-5 = system: SK-MEL-5
SK-OV-3 = system: SK-OV-3
SN12C = system: SN12C
SNB-19 = system: SNB-19
SNB-75 = system: SNB-75
SNB-78 = system: SNB-78
SW-620 = system: SW-620
TK-10 = system: TK-10
U-251 = system: U-251
UACC-257 = system: UACC-257
UACC-62 = system: UACC-62
UO-31 = system: UO-31
XF498 = system: XF498
BT-549 = system: BT-549
DU-145 = system: DU-145
HOP-18 = system: HOP-18
Hs-578T = system: Hs-578T
MCF7 = system: MCF7
MDA-MB-231 = system: MDA-MB-231
MDA-MB-435 = system: MDA-MB-435
MDA-N = system: MDA-N
NCI/ADR-RES = system: NCI/ADR-RES
PC-3 = system: PC-3
SR = system: SR

For `CC(C)OC(=O)C1Cc2c([nH]c3ccccc23)C(c2ccccc2)N1` (configuration not stated), the GI50 (786-0) was 27.7 µM (inactive), the GI50 (A498) was 88.5 µM (inactive) and the GI50 (A549) was 66.1 µM (inactive). The GI50 (ACHN) was 93.8 µM (inactive), the GI50 (CAKI-1) was > 100 µM (inactive) and the GI50 (CCRF-CEM) was 79.4 µM (inactive). The GI50 (COLO 205) was > 100 µM (inactive), the GI50 (DLD-1) was 23.6 µM (inactive) and the GI50 (DMS-114) was 52.4 µM (inactive). For the same compound, the GI50 (DMS-273) was > 100 µM (inactive), the GI50 (EKVX) was 89.3 µM (inactive) and the GI50 (HCC 2998) was 30.5 µM (inactive). The GI50 (HCT-116) was 62.4 µM (inactive), the GI50 (HCT-15) was 75.3 µM and the GI50 (HL-60) was 33 µM (inactive). The GI50 (HOP-62) was 23.4 µM (inactive), the GI50 (HOP-92) was 55 µM (inactive) and the GI50 (HT-29) was 98.4 µM (inactive). For the same compound, the GI50 (IGROV-1) was > 100 µM (inactive), the GI50 (K562) was 50.1 µM (inactive) and the GI50 (KM-20L2) was > 100 µM (inactive). The GI50 (KM12) was 97.1 µM (inactive), the GI50 (LOX IMVI) was > 100 µM (inactive) and the GI50 (LXFL 529) was 79.6 µM (inactive). For the same compound, the GI50 (M14) was 81.7 µM (inactive), the GI50 (M19-MEL) was > 100 µM (inactive) and the GI50 (MOLT-4) was 42.5 µM (inactive). The GI50 (Malme-3M) was 25.7 µM (inactive), the GI50 (NCI-H226) was > 100 µM (inactive) and the GI50 (NCI-H23) was 67.1 µM (inactive). For the same compound, the GI50 (NCI-H460) was > 100 µM (inactive), the GI50 (NCI-H522) was 29.2 µM (inactive) and the GI50 (OVCAR-3) was > 100 µM (inactive). The GI50 (OVCAR-4) was 79.8 µM (inactive), the GI50 (OVCAR-5) was > 100 µM (inactive) and the GI50 (OVCAR-8) was > 100 µM (inactive). For the same compound, the GI50 (RPMI-8226) was 84.9 µM (inactive), the GI50 (RXF 393) was 23.8 µM (inactive) and the GI50 (SF-268) was 56.9 µM (inactive). For the same compound, the GI50 (SF-295) was > 100 µM (inactive), the GI50 (SF-539) was > 100 µM (inactive) and the GI50 (SK-MEL-28) was 42.5 µM (inactive). For the same compound, the GI50 (SK-MEL-2) was 18.2 µM (inactive), the GI50 (SK-MEL-5) was 91.2 µM (inactive) and the GI50 (SK-OV-3) was > 100 µM (inactive). The GI50 (SN12C) was > 100 µM (inactive), the GI50 (SNB-19) was > 100 µM (inactive) and the GI50 (SNB-75) was 18.3 µM (inactive). For the same compound, the GI50 (SNB-78) was > 100 µM (inactive), the GI50 (SW-620) was > 100 µM (inactive) and the GI50 (TK-10) was > 100 µM (inactive). For the same compound, the GI50 (U-251) was > 100 µM (inactive), the GI50 (UACC-257) was 68.5 µM (inactive) and the GI50 (UACC-62) was > 100 µM (inactive). For the same compound, the GI50 (UO-31) was 18 µM (inactive) and the GI50 (XF498) was > 100 µM (inactive).
For `COc1ccc(/C(Cl)=C(\C=O)c2ccc(OC)c(OC)c2)cc1OC`, the GI50 (786-0) was > 100 µM (inactive), the GI50 (A498) was > 94.4 µM (inactive) and the GI50 (A549) was > 100 µM (inactive). For the same compound, the GI50 (ACHN) was > 100 µM (inactive), the GI50 (BT-549) was > 100 µM (inactive) and the GI50 (CAKI-1) was > 100 µM (inactive). The GI50 (CCRF-CEM) was > 83.9 µM (inactive), the GI50 (COLO 205) was > 100 µM (inactive) and the GI50 (DLD-1) was > 92 µM (inactive). For the same compound, the GI50 (DMS-114) was > 90.2 µM (inactive), the GI50 (DMS-273) was > 90.4 µM (inactive) and the GI50 (DU-145) was > 100 µM (inactive). For the same compound, the GI50 (EKVX) was > 100 µM (inactive), the GI50 (HCC 2998) was > 97.1 µM (inactive) and the GI50 (HCT-116) was > 91.4 µM (inactive). The GI50 (HCT-15) was 83 µM, the GI50 (HL-60) was 22.2 µM (inactive) and the GI50 (HOP-18) was > 98.2 µM (inactive). The GI50 (HOP-62) was > 84.7 µM (inactive), the GI50 (HOP-92) was > 100 µM (inactive) and the GI50 (HT-29) was 41.6 µM (inactive). The GI50 (Hs-578T) was > 100 µM (inactive), the GI50 (IGROV-1) was 95.3 µM (inactive) and the GI50 (K562) was > 100 µM (inactive). The GI50 (KM-20L2) was > 100 µM (inactive), the GI50 (KM12) was 32.5 µM (inactive) and the GI50 (LOX IMVI) was 33.7 µM (inactive). The GI50 (M14) was > 100 µM (inactive), the GI50 (M19-MEL) was 99.3 µM (inactive) and the GI50 (MCF7) was 56.8 µM (inactive). The GI50 (MDA-MB-231) was > 100 µM (inactive), the GI50 (MDA-MB-435) was > 100 µM (inactive) and the GI50 (MDA-N) was > 100 µM (inactive). The GI50 (MOLT-4) was > 100 µM (inactive), the GI50 (Malme-3M) was 56.5 µM (inactive) and the GI50 (NCI-H226) was 91.6 µM (inactive). For the same compound, the GI50 (NCI-H23) was 76.6 µM (inactive), the GI50 (NCI-H460) was 91.4 µM (inactive) and the GI50 (NCI-H522) was 43.5 µM (inactive). The GI50 (NCI/ADR-RES) was > 91.4 µM (inactive), the GI50 (OVCAR-3) was > 46.8 µM (inactive) and the GI50 (OVCAR-4) was 63.8 µM (inactive). The GI50 (OVCAR-5) was > 45.6 µM (inactive), the GI50 (OVCAR-8) was > 94.6 µM (inactive) and the GI50 (PC-3) was > 100 µM (inactive). The GI50 (RPMI-8226) was 70.3 µM (inactive), the GI50 (RXF 393) was 37.2 µM (inactive) and the GI50 (SF-268) was 37.2 µM (inactive). The GI50 (SF-295) was 30.1 µM (inactive), the GI50 (SF-539) was 94.6 µM (inactive) and the GI50 (SK-MEL-28) was > 94.6 µM (inactive). The GI50 (SK-MEL-2) was 94.4 µM (inactive), the GI50 (SK-MEL-5) was > 81.7 µM (inactive) and the GI50 (SK-OV-3) was > 100 µM (inactive). The GI50 (SN12C) was > 100 µM (inactive), the GI50 (SNB-19) was > 100 µM (inactive) and the GI50 (SNB-75) was 22.9 µM (inactive). For the same compound, the GI50 (SNB-78) was > 100 µM (inactive), the GI50 (SR) was > 100 µM (inactive) and the GI50 (SW-620) was > 100 µM (inactive). For the same compound, the GI50 (TK-10) was > 100 µM (inactive), the GI50 (U-251) was > 100 µM (inactive) and the GI50 (UACC-257) was 41.7 µM (inactive). For the same compound, the GI50 (UACC-62) was > 100 µM (inactive), the GI50 (UO-31) was > 100 µM (inactive) and the GI50 (XF498) was > 88.9 µM (inactive).

Source: ChEMBL document CHEMBL1201862, “PubChem BioAssay data set” (2004)
